The values below come from ChEMBL document CHEMBL3352803, “Peripherally restricted CB1 receptor blockers” (Bioorg Med Chem Lett, 2013).

One data set deals with Mus musculus. The data set can be described thus: Ex vivo binding affinity at CB1 receptor in mouse at 10 mg/kg, iv. Type of data set: functional.
Data set [1] deals with T1, Cannabinoid receptor 1 (Homo sapiens, UniProt P21554). The data set can be described thus: Inverse agonist activity at human CB1 receptor.
Data set [2] has as its target T2, Cannabinoid receptor 1 (Rattus norvegicus, UniProt P20272). The data set can be described thus: Inverse agonist activity at rat CB1 receptor.
The subject of data set [3] is Nucleic Acid. The data set can be described thus: Ratio of drug uptake in plasma to brain of C57BL/6J mouse. It counts as ADME. Particulars: in vivo.
For data set [4], the target named is T1, Cannabinoid receptor 1. The data set is described as follows: Binding affinity at CB1 receptor (unknown origin).
The test system of data set [5] is Nucleic Acid. The data set can be described thus: Ratio of drug uptake in plasma to brain of po dosed mouse. Type of data set: ADME, organism-based. Particulars: in vivo.
The target of data set [6] is T1, Cannabinoid receptor 1. The data set can be described thus: Antagonist activity at human CB1 receptor.
The test system of data set [7] is Brain. The data set can be described thus: Drug uptake in mouse brain. It counts as ADME, tissue-based. Particulars: in vivo, read-out: Drug uptake.
Data set [8] deals with Brain. The data set can be described thus: Drug uptake in rat brain. It counts as ADME, tissue-based. The following applies: in vivo, read-out: Drug uptake.
Data set [9] addresses T2, Cannabinoid receptor 1. The data set can be described thus: Antagonist activity at rat CB1 receptor.
The nature of data set [10]: Protein binding in rat plasma at 10 mg/kg. It counts as ADME, organism-based. Details: dose 10 mg/kg. The following applies: read-out: PPB.
The nature of data set [11]: Lipophilicity, log D of the compound. It counts as physicochemical. The following applies: octanol/water.
A short description of data set [12]: Cmax in rat at 10 mg/kg. Type of data set: ADME, organism-based. Details: dose 10 mg/kg. Particulars: in vivo.
For data set [13], the target named is T1, Cannabinoid receptor 1. The data set can be described thus: Binding affinity to human CB1 receptor.
Data set [14] relates to Rattus norvegicus. The data set can be described thus: Receptor occupancy at CB1 receptor in rat frontal cortex at 10 mg/kg, po. Type of data set: functional.
Data set [15] concerns Rattus norvegicus. The data set is described as follows: Receptor occupancy at CB1 receptor in rat frontal cortex at 3 to 10 mg/kg, po. It counts as functional. The following applies: dose mg/kg 3-10.
The species named for data set [16] is Rattus norvegicus. The data set is described as follows: Receptor occupancy at CB1 receptor in diet-induced obese rat assessed as weight loss. Type of data set: functional.

T1 sequence (P21554 whole entry): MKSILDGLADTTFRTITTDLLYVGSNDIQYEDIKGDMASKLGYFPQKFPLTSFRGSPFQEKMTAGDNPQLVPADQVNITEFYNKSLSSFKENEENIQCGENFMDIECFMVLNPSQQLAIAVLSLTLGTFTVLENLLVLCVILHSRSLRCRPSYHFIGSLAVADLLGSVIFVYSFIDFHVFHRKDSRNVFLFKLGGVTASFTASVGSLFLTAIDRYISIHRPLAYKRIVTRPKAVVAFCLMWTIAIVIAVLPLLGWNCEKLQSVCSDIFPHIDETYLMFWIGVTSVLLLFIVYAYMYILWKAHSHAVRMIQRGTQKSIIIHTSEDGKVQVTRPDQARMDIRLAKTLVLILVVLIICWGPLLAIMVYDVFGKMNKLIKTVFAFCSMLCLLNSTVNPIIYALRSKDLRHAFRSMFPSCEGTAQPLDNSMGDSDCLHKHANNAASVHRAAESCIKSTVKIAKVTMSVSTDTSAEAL
T2 sequence (P20272 whole entry): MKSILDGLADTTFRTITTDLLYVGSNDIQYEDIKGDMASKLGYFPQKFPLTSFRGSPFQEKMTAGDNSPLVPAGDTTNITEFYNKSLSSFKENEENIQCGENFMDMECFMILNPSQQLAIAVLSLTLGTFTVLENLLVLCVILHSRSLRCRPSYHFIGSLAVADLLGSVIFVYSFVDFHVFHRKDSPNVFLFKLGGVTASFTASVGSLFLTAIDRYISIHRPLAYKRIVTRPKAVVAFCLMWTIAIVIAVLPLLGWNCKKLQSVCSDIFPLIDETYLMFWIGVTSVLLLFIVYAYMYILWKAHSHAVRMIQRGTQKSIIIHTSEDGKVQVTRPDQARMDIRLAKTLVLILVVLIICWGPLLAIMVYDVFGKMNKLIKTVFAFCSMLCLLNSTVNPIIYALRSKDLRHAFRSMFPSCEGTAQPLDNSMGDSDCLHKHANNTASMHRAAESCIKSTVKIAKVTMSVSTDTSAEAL

For `CS(=O)(=O)NCCCn1c(C(=O)N2CCC(C(N)=O)(N3CCC(F)(F)CC3)CC2)cc(-c2ccc(Cl)cc2Cl)c1-c1ccc(Cl)cc1`, the Activity in the data set with Mus musculus amounted to 28%.

As for `CCCCCCc1nc(-c2ccc(Cl)cc2)n(-c2ccc(Cl)cc2Cl)n1`, the IC50 came to 631 nM at Cannabinoid receptor 1 [1] and 690 nM at Cannabinoid receptor 1 [2].

`CCc1c(C(=O)NN2CCCCC2)nn(-c2ccc(Cl)cc2Cl)c1-c1ccc(C#Cc2ccc(C(F)(F)F)cc2)s1` displayed a half-maximal inhibitory concentration (IC50) at Cannabinoid receptor 1 [1] of 8.5 nM. The Ratio in the data set with Nucleic Acid [3] is 33; in the data set on Nucleic Acid [5], 1.2. Further, the Ki on Cannabinoid receptor 1 [4] is 3 nM.

Compound `Cc1c(C(=O)NN2CCS(=O)(=O)CC2)nn(-c2ccc(Cl)cc2Cl)c1-c1ccc(C#CCCC#N)cc1` yielded a Ki on Cannabinoid receptor 1 [6] of 1 nM. Moreover, the concentration in the data set with Brain [7] and in the data set with Brain [8] was 50 nM in each case. Besides, in the data set with Nucleic Acid [5], the Ratio amounted to 33.

`Cc1c(/C=C/C(=O)NCc2cccc(Cl)c2)nn(-c2ccc(Cl)cc2Cl)c1-c1ccc(Cl)cc1`: the IC50 at Cannabinoid receptor 1 [9] is 159 nM.

As for `CC1(C)C(=O)N(c2ccc(F)c(C(F)(F)F)c2)C(=O)C1Cc1ccc(F)cc1NC(=O)Nc1ccc(S(N)(=O)=O)cc1` (stereo not given), the fraction unbound in data set [10] is under 0.01. Moreover, in data set [11], the log distribution coefficient (logD) worked out at 3.66. In [12], this compound gave a Cmax of 430 nM. Also, at Cannabinoid receptor 1 [13], the IC50 was 10 nM and the affinity, expressed as Ki, was 9 nM.

For `CN/C(=N\S(=O)(=O)c1ccc(Cl)cc1)N1C[C@H](c2ccccc2)C(c2ccc(Cl)cc2)=N1` [IBIPINABANT], the Occ with Rattus norvegicus [14] turned out to be 11%.

In the data set on Rattus norvegicus [15], `Cc1c(C(=O)NN2CCCCC2)nn(-c2ccc(Cl)cc2Cl)c1-c1ccc(Cl)cc1` [RIMONABANT] had an Occ of over 65%.

As for `C[C@H](NC(=O)C(C)(C)Oc1ccc(C(F)(F)F)cn1)[C@@H](Cc1ccc(Cl)cc1)c1cccc(C#N)c1` [TARANABANT], in the data set listed under Rattus norvegicus [16], the Occ is recorded as 30%.

In general, IC50 refers to the concentration needed to halve the response being measured. As a reminder, the Ki is the equilibrium dissociation constant of an inhibitor or competing ligand from its target. A word on the logD: it is lipophilicity at a set pH, counting ionised and neutral species. A lower logD goes with lower lipophilicity. By Cmax is commonly meant the peak of the concentration-time curve.
